What was measured:
[1] = tested on: Toxoplasma gondii tachyzoites (strain RH, type I); experiment: Screening at 10 μM: T. gondii parasite growth inhibition in Vero cells (enzyme immunoassay); format: cell-based; conditions: for inhibition at 10 µM / parasite growth inhibition: 72 h, triplicate, 10 μM
Experimental: (§1) All the experiments were performed in triplicate. Compound screening was performed at 10 μM in 96-well plates. Thus, 20,000 Vero cells contained in 200 μL of culture medium were filled in each well and left to adhere for 4 h at 37 °C and 5% of CO2. Then, 50,000 parasites contained in 50 μL of culture medium were filled, followed by 3 h of incubation in the same conditions. Wells were then emptied and 100 μL of solutions containing each drug at a final concentration of 10 μM were added. Incubation continued for 72 h.
(§2) The IC50 assays were processed in the same conditions as previously described. Dilutions were performed in a culture medium. The IC50 was determined using an adapted protocol from Doliwa et al.. Parasites and cells were first fixed with 100 μL of cold methanol for 5 min at −20 °C. Cells were then rehydrated with 100 μL of PBS at room temperature. Wells were then emptied and filled with 60 μL of a solution of anti-T. gondii rabbit antibody (Ref. 9070-0556, Biorad) diluted at 1/1000. After 1 hour of incubation at 37 °C, wells were washed three times with PBS, and 60 μL of anti-rabbit IgG horseradish conjugated goat antibody (Ref. 170-6515, Bio-Rad) at 1/1000 were added, followed by 1 h of incubation at 37 °C. The wells were washed three more times, and 200 μL of a solution of o-phenylenediamine dihydrochloride (Sigma, France) was added. After 15 min at room temperature, the enzymatic reaction was stopped by the addition of 50 μL of hydrochloric acid (HCl) 3 M. To finish, 200 μL of each well were transferred to a new well and a spectrophotometer reading was performed at 492 nm, corrected at 630 nm. Each experiment was performed with three controls: control with host cells alone, control with host cells and parasites without the drug for parasite multiplication, and control with host cells with parasites and pyrimethamine at 1 μM.

[2] = tested on: Toxoplasma gondii tachyzoites (strain RH, type I); experiment: Half maximal inhibitory concentration (IC50) on T. gondii (enzyme immunoassay); format: cell-based; conditions: for Selectivity index (SI): SI = CC50/IC50 (Vero cells / T. gondii); for IC50: Toxoplasma gondii, T. gondii RH in Vero cells, 72 h
Experimental: as §1, §2

[3] = Cytotoxicity evaluation, Uptiblue viable cell-counting assay; conditions: African green monkey
Experimental: (§3) Vero cells (host cells of T. gondii tachyzoite) were purchased at ATCC (reference CCL-81), grown in Iscove Modified Dulbecco Media (IMDM) GlutaMAX medium (Gibco) supplemented with 5% decomplemented fetal calf serum with 1% penicillin/streptomycin. The culture was incubated at 37 °C and 5% CO2. Toxoplasma gondii tachyzoites (strain RH, type I) were grown in the same conditions as Vero cells except that the concentration of fetal calf serum was 2%.
(§4) The in vitro cytotoxicity was evaluated on Vero cell cultures using Uptiblue® viable cell-counting assay (Interchim, Montluçon, France). CC50 assays were performed in 96-well plates containing 20,000 Vero cells and 200 μL of culture medium identical to the one used for Vero cell maintenance. After 4 h of incubation, wells were emptied. The IC50 was performed with 100 μL of solutions containing the tested compounds with a final concentration range of 0–80 μM. After 72 h of incubation, wells were washed with 100 μL of phosphate-buffered saline (PBS) (Sigma-Aldrich, Saint-Quentin-Fallavier, France). Then, 100 μL of IMDM culture medium supplemented with 2% (v/v) of calf fetal serum and 10% (v/v) of Uptiblue® were added to each well. Plates were placed at 37 °C and 5% of CO2 for 3 h. Spectrophotometric measures were performed at 570 nm and corrected at 600 nm on an AMR-100 spectrophotometer (AllSheng, Hangzhou, China).

L. donovani = tested on: L. donovani; parameters: method as in earlier work; conditions: 50 μM; cited from earlier work
Vero cells [4] = conditions: cited from earlier work
[5] = tested on: Plasmodium falciparum K1 strain; parameters: method as in PMID 21438586; conditions: cited from earlier work
Vero cells [6] = experiment: Cytotoxicity evaluation, Uptiblue viable cell-counting assay
Experimental: as §3, §4

Solubility in DMSO = format: physicochemical
Experimental: Stock solutions at 1 mg/mL were prepared in cell culture grade dimethyl sulfoxide (DMSO, PanReac AppliChem, Darmstadt, Germany). Subsequent dilutions were made in a culture medium identical to the one used for tachyzoite maintenance.

T. gondii [7] = tested on: T. gondii; parameters: method as in PMID 20441162; conditions: cited from earlier work
Vero cells [8] = tested on: Vero cells; parameters: method as in PMID 20441162; conditions: cited from earlier work
T. gondii [9] = tested on: T. gondii; parameters: method as in PMID 23776166; conditions: in vitro growth of T. gondii; cited from earlier work
P. falciparum = tested on: P. falciparum; parameters: method as in PMID 11239932; conditions: P. falciparum growth; cited from earlier work

Row | Compound | inhibition at 10 µM ([1]; Toxoplasma gondii, Vero) [%] | Selectivity index (SI) [2] | IC50 [2] [µM] | CC50 at 72 h [3] [µM] | CC50 at 72 h ([3]; Vero cells (ATCC CCL-81)) [µM] | also measured
1 | C=C(C)[C@@H]1CC[C@]2(CO)CC[C@]3(C)[C@H](CC[C@@H]4[C@@]5(C)CC[C@H](O)C(C)(C)[C@@H]5CC[C@]43C)[C@@H]12 [Betulin (1), betulin] | 44 | >6.0 | 13.3 ± 7.3 | > 80 |  | inhibition of L. donovani (L. donovani): 35.0%; CC50 (Vero cells [4]): 164 µM
2 | C=C(C)[C@@H]1CC[C@]2(C=O)CC[C@]3(C)[C@H](CC[C@@H]4[C@@]5(C)CC[C@H](O)C(C)(C)[C@@H]5CC[C@]43C)[C@@H]12 [Betulinaldehyde (2), betulinaldehyde] | 93 | >15.7 | 5.1 ± 0.6 |  | > 80 | 
3 | C=C(C)[C@@H]1CC[C@]2(C(=O)O)CC[C@]3(C)[C@H](CC[C@@H]4[C@@]5(C)CC[C@H](O)C(C)(C)[C@@H]5CC[C@]43C)[C@@H]12 [Betulinic acid (3), betulinic acid] | 49 | >9.6 | 8.3 ± 2.7 | > 80 |  | inhibition of L. donovani (L. donovani): 39.8%
4 | C=C(C)[C@@H]1CC[C@]2(CO)CC[C@]3(C)[C@H](CC[C@@H]4[C@@]5(C)CCC(=O)C(C)(C)[C@@H]5CC[C@]43C)[C@@H]12 [Betulone (4), betulone] | 99 | >29.6 | 2.7 ± 1.2 | > 80 |  | Selectivity index (SI) ([2]; listed as betulone): greater than 29; IC50 [5]: 3 µM
5 | C=C(C)C1CCC2(C(=O)O)CCC3(C)C(CCC4C5(C)CCC(=O)C(C)(C)C5CCC43C)C12 (stereo not drawn) [Betulonic acid (7), Betulonic acid] |  | >18.6 | 4.3 ± 1.4 |  | > 80 | cytotoxicity (Vero cells [6]; 80 μM on Vero cells): without cytotoxicity; inhibition of L. donovani (L. donovani): 97.6%
6 | C=C(C)C1CCC2(C(=O)OC)CCC3(C)C(CCC4C5(C)CCC(=O)C(C)(C)C5CCC43C)C12 (stereo not drawn) [Betulonic acid methyl ester (8), betulonic acid methyl ester] |  | >25.8 | 3.1 ± 0.4 | > 80 |  | 
7 | C=C(C)[C@@H]1CC[C@]2(C)CC[C@]3(C)[C@H](CC[C@@H]4[C@@]5(C)CCC(=O)C(C)(C)[C@@H]5CC[C@]43C)[C@@H]12 [Lupenone, lupenone] |  |  |  |  |  | solubility in DMSO (Solubility in DMSO): not soluble in DMSO
8 | C=C(C)[C@@H]1CC[C@]2(C)CC[C@]3(C)[C@H](CC[C@@H]4[C@@]5(C)CC[C@H](O)C(C)(C)[C@@H]5CC[C@]43C)[C@@H]12 [Lupeol (5), lupeol] | 60 | >5.8 | 13.8 ± 4 |  | > 80 | 
9 | CCc1nc(N)nc(N)c1-c1ccc(Cl)cc1 [Pyrimethamine (10), pyrimethamine, reference compound] |  | 38.0 | 0.7 ± 0.2 |  | 27.7 | inhibition at 1 µM ([1]; Toxoplasma gondii, Vero, 1 μM): 78%; cytotoxicity (Vero cells [6]; 10 μM): cytotoxic
10 | CC1(C)CC[C@]2(C(=O)O)CC[C@]3(C)C(=CC[C@@H]4[C@@]5(C)C[C@@H](O)[C@H](O)C(C)(C)[C@@H]5CC[C@]43C)[C@@H]2C1 [maslinic acid] |  |  |  |  |  | LD50 (T. gondii [7]): 53.8 µM; LD50 (Vero cells [8]): 236.6 µM
11 | Oc1cc(Cl)ccc1Oc1ccc(Cl)cc1Cl [triclosan] |  |  |  |  |  | IC50 (T. gondii [9]): 3 µM; IC50 (P. falciparum): 1 µM
12 | β-sitostenone [β-sitostenone (9)] |  |  |  |  |  | parasite growth inhibition [1]: did not show any relevant activity; parasite growth inhibition ([1]; listed as β-sitostenone): no specific activity

— article PMC8830292, “Anti-Toxoplasma gondii effect of lupane-type triterpenes from the bark of black alder (Alnus glutinosa) and identification of a potential target by reverse docking” (Parasite, 2022)
